Source: patent US12503444B2, “Compound containing benzene ring and application thereof” (WUHAN LL SCIENCE AND TECHNOLOGY DEVELOPMENT CO., LTD., priority 2019, dated 2025)
Like-named read-outs stand apart in the source and are kept apart here.

Target: T1, hP2X4 (human purinergic P2X receptor subtype 4) (Homo sapiens, UniProt Q99571)
T1 sequence (Q99571 1-404 isoform Q99571-2): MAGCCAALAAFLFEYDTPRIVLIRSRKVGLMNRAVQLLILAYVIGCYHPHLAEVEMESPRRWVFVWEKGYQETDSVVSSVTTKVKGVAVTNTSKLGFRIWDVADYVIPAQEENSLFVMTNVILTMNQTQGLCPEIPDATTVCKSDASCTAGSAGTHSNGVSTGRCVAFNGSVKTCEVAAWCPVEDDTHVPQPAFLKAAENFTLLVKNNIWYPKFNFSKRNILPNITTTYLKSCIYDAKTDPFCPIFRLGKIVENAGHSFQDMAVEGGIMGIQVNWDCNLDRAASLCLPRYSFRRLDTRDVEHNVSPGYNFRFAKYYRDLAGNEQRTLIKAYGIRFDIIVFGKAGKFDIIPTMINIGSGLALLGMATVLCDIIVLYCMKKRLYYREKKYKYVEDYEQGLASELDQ
Assay: FLIPR assay of intracellular calcium increase induced by activation of hP2X4 expressed in HEK293 cells (agonist BZ-ATP 2.5 μM)
Type: cell-based
Details: HEK293 cells stably expressing hP2X4, FLIPR, read-out: P2X4 IC50
Procedure: The antagonist property of the compounds disclosed herein was determined using the FLIPR (fluorescence imaging plate reader) method, wherein the compounds are inhibitors for the intracellular calcium increase induced by activation of hP2X4 (human purinergic P2X receptor subtype 4, accession No. NM_001256796.2) expressed in HEK293 cells (human renal epithelial cell line, ATCC).
HEK293 cells stably expressing hP2X4 were cultured in DMEM high glucose medium containing 10% FBS (fetal bovine serum, Biosera, FB-1058/500), 1% penicillin-streptomycin (Gibco, 15140-122) and 1 mg/mL G418 (CABIOCHE, 345810) in a cell incubator (37° C., […]). Cells at 400,000 cells/mL were seeded into a 384-well plate (10,000 cells/well) 18-24 h prior to the FLIPR experiment and then incubated overnight in a cell incubator. On the day of the experiment, the medium was discarded and the cells were washed in an FLIPR buffer (0.3 mL of probenecid (Thermo, P36400), 0.6 mL of 1 M HEPES (Invitrogen, 15630080) and 29.1 mL of HBSS (Invitrogen, 14065056) per 30 mL of the buffer). Each well was added with 20 μL of 0.5× Calcium 6 fluorescent dye (Molecular Devices, R8190) and then the cells were subjected to dye-loading incubation at 37° C. for 1.5 h. Each well was added with 10 μL of respective test compound (dissolved in DMSO at a concentration of 10 mM and serially diluted with buffer) or vehicle and the mixture was equilibrated for 30 min at room temperature. The cell plate was then placed in the FLIPR for baseline fluorescence measurements (excitation at 485 nm and emission at 525-535 nm). An agonist (BZ-ATP (Sigma, B6396) at a final concentration of 2.5 μM) or a vehicle (ultrapure water) was then added at 10 μL/well, fluorescence values were measured for 2 min at 1-second intervals, and finally the output fluorescence counts were analyzed.

| Compound | IC50 (class symbols) | IC50 (numeric values) |
| --- | --- | --- |
| NS(=O)(=O)c1cc(NC(=O)Cc2ccccc2Cl)cc2cn(C(F)F)nc12 [Compound 49, 2-(2-chlorophenyl)-N-(2-(difluoromethyl)-7-sulfamoyl-2H-indazol-5-yl)acetamide] | – | 89.5 nM |
| CC1(N2Cc3cc(NC(=O)Cc4ccccc4Cl)cc(S(N)(=O)=O)c3C2)COC1 [Compound 130, 2-(2-chlorophenyl)-N-(2-(3-methyloxetan-3-yl)-7-sulfamoylisoindolin-5-yl)acetamide] | 200 to 5000 nM | – |
| NS(=O)(=O)c1cc(NC(=O)Cc2ccccc2Cl)cc2nc(-c3ccc(Cl)cc3)[nH]c12 [Compound 54, 2-(2-chlorophenyl)-N-(2-(4-chlorophenyl)-7-sulfamoyl-1H-benzo[d]imidazol-5-yl)acetamide] | 200 to 5000 nM | – |
| CC(C)C1(n2cc3c(S(N)(=O)=O)cc(NC(=O)Cc4ccccc4Cl)cc3n2)CC1 [Compound 17, 2-(2-chlorophenyl)-N-(2-(1-isopropylcyclopropyl)-4-sulfamoyl-2H-indazol-6-yl)acetamide] | 10 to 50 nM | – |
| Cc1ccccc1CC(=O)Nc1cc([S@](C)(=N)=O)c2cn(Cc3ccc(F)cc3)nc2c1 [Compound 139A] | 200 to 5000 nM | – |
| CC(C)(F)n1cc2c(S(N)(=O)=O)cc(NC(=O)Cc3ccccc3Cl)cc2n1 [Compound 13, 2-(2-chlorophenyl)-N-(2-(2-fluoropropan-2-yl)-4-sulfamoyl-2H-indazol-6-yl)acetamide] | 10 to 50 nM | – |
| NS(=O)(=O)c1cc(NC(=O)Cc2ncccc2Cl)cc2nn(C(F)F)cc12 [Compound 113, 2-(3-chloropyridin-2-yl)-N-(2-(difluoromethyl)-4-sulfamoyl-2H-indazol-6-yl)acetamide] | 200 to 5000 nM | – |
| N-(4-(N,N-bis(4-methoxybenzyl)sulfamoyl)-1-(4-(trifluoromethyl)benzyl)-1H-indazol-6-yl)-2-(2-chlorophenyl)acetamide [Compound 90A] | ≤ 10 nM | – |
| NS(=O)(=O)c1cc(NC(=O)Cc2ccccc2Cl)cc2c1cnn2CC1CCOCC1 [Compound 141A, 2-(2-chlorophenyl)-N-(4-sulfamoyl-1-((tetrahydro-2H-pyran-4-yl)methyl)-1H-indazol-6-yl)acetamide] | 50 to 200 nM | – |
| C[S@@](=N)(=O)c1cc(NC(=O)Cc2ccccc2Cl)cc2nn(Cc3ccc(F)cc3)cc12 [Compound 138A, (R)-2-(2-chlorophenyl)-N-(2-(4-fluorophenylmethyl)-4-(S-methylsulfonimidoyl)-2H-indazol-6-yl)acetamide] | 200 to 5000 nM | – |
| CC(C)C(F)(F)n1cc2c(S(N)(=O)=O)cc(NC(=O)Cc3ccccc3Cl)cc2n1 [Compound 23, 2-(2-chlorophenyl)-N-(2-(1,1-difluoro-2-methylpropyl)-4-sulfamoyl-2H-indazol-6-yl)acetamide] | 10 to 50 nM | – |
| NS(=O)(=O)c1cc(NC(=O)Cc2ccccc2Cl)cc2cnn(C(F)F)c12 [Compound 50, 2-(2-chlorophenyl)-N-(1-(difluoromethyl)-7-sulfamoyl-1H-indazol-5-yl)acetamide] | 50 to 200 nM | – |
| COc1ccc(Cn2cc3c(S(C)(=N)=O)cc(NC(=O)Cc4ccccc4Cl)cc3n2)cc1 (stereo not shown) [Compound 137, 2-(2-chlorophenyl)-N-(2-(4-methoxybenzyl)-4-(S-methylsulfonylimino)-2H-indazol-6-yl)acetamide] | 200 to 5000 nM | – |
| COCCn1ncc2c(S(N)(=O)=O)cc(NC(=O)Cc3ccccc3Cl)cc21 [Compound 25A] | 10 to 50 nM | – |
| NS(=O)(=O)c1cc(NC(=O)Cc2ccccc2Cl)cc2c1cnn2C(=O)C1CC1 [Compound 16-A, 2-(2-chlorophenyl)-N-(1-(cyclopropylcarbonyl)-4-sulfamoyl-1H-indazol-6-yl)acetamide] | 10 to 50 nM | – |
| CC(C)n1cc2c(S(N)(=O)=O)cc(NC(=O)Cc3ccccc3Cl)cc2n1 [Compound 6-A, 2-(2-chlorophenyl)-N-(2-isopropyl-4-sulfamoyl-2H-indazol-6-yl)acetamide] | – | 1.16 nM |
| NS(=O)(=O)c1cc(NC(=O)Cc2ccccc2Cl)cc2c1cnn2-c1ccc(Cl)cc1 [Compound 45, 2-(2-chlorophenyl)-N-(1-(4-chlorophenyl)-4-sulfamoyl-1H-indazol-6-yl)acetamide] | 10 to 50 nM | – |
| CC(C)(C1CC1)n1cc2c(S(N)(=O)=O)cc(NC(=O)Cc3ccccc3Cl)cc2n1 [Compound 21, 2-(2-chlorophenyl)-N-(2-(2-cyclopropylpropan-2-yl)-4-sulfamoyl-2H-indazol-6-yl)acetamide] | 10 to 50 nM | – |
| NS(=O)(=O)c1cc(NC(=O)Cc2ccccc2Cl)cc2c1cnn2C(F)F [Compound 43, 2-(2-chlorophenyl)-N-(1-(difluoromethyl)-4-sulfamoyl-1H-indazol-6-yl)acetamide] | 10 to 50 nM | – |
| NS(=O)(=O)c1cc(NC(=O)Cc2ccccc2Cl)cc2nn(Cc3ccc(O)cc3)cc12 [Compound 34, 2-(2-chlorophenyl)-N-(2-(4-hydroxybenzyl)-4-sulfamoyl-2H-indazol-6-yl)acetamide] | 10 to 50 nM | – |

The next lines start with the values.

| IC50 (class symbols) | IC50 (numeric values) | Compound |
| --- | --- | --- |
| 10 to 50 nM | – | NS(=O)(=O)c1cc(NC(=O)Cc2ccccc2Cl)cc2nn(C(F)C3CC3)cc12 (stereo not shown) [Compound 19, 2-(2-chlorophenyl)-N-(2-(cyclopropylfluoromethyl)-4-sulfamoyl-2H-indazol-6-yl)acetamide] |
| ≤ 10 nM | – | COc1ccc(Cn2cc3c(S(N)(=O)=O)cc(NC(=O)Cc4ccccc4Cl)cc3n2)cc1F [Compound 82] |
| 10 to 50 nM | – | NS(=O)(=O)c1cc(NC(=O)Cc2ccccc2Cl)cc2nn(C(F)(F)C3CC3)cc12 [Compound 20, 2-(2-chlorophenyl)-N-(2-(cyclopropyldifluoromethyl)-4-sulfamoyl-2H-indazol-6-yl)acetamide] |
| 10 to 50 nM | – | COc1ccccc1Cn1ncc2c(S(N)(=O)=O)cc(NC(=O)Cc3ccccc3Cl)cc21 [Compound 37-B, 2-(2-chlorophenyl)-N-(1-(2-methoxybenzyl)-4-sulfamoyl-1H-indazol-6-yl)acetamide] |
| ≤ 10 nM | – | NS(=O)(=O)c1cc(NC(=O)Cc2ccccc2Cl)cc2nn(Cc3ccc(C(F)(F)F)cc3)cc12 [Compound 90, 2-(2-chlorophenyl)-N-(4-sulfamoyl-2-(4-(trifluoromethyl)benzyl)-2H-indazol-6-yl)acetamide] |
| ≤ 10 nM | – | Cc1ccc(Cn2ncc3c(S(N)(=O)=O)cc(NC(=O)Cc4ccccc4Cl)cc32)cc1 [Compound 92A, 2-(2-chlorophenyl)-N-(1-(4-methylbenzyl)-4-sulfamoyl-1H-indazol-6-yl)acetamide] |
| ≤ 10 nM | – | NS(=O)(=O)c1cc(NC(=O)Cc2ccccc2Cl)cc2nn(C(=O)C3CC3)cc12 [Compound 16-B, 2-(2-chlorophenyl)-N-(2-(cyclopropylcarbonyl)-4-sulfamoyl-2H-indazol-6-yl)acetamide] |
| ≤ 10 nM | – | NS(=O)(=O)c1cc(NC(=O)Cc2ccccc2Cl)cc2c1cnn2Cc1ccc(Cl)cc1 [Compound 89A, N-(1-(4-chlorobenzyl)-4-sulfamoyl-1H-indazol-6-yl)-2-(2-chlorophenyl)acetamide] |
| ≤ 10 nM | – | NS(=O)(=O)c1cc(NC(=O)Cc2ccccc2Cl)cc2nn(CCC3CC3)cc12 [Compound 33, 2-(2-chlorophenyl)-N-(2-(2-cyclopropylethyl)-4-sulfamoyl-2H-indazol-6-yl)acetamide] |
| ≤ 10 nM | – | C=CCn1cc2c(S(N)(=O)=O)cc(NC(=O)Cc3ccccc3Cl)cc2n1 [Compound 14-A] |
| ≤ 10 nM | – | NS(=O)(=O)c1cc(NC(=O)Cc2ccccc2Cl)cc2nn(CC3CCCCC3)cc12 [Compound 32-A, 2-(2-chlorophenyl)-N-(2-(cyclohexylmethyl)-4-sulfamoyl-2H-indazol-6-yl)acetamide] |
